Assays:
Type in all cases: in vivo
[1] = tested on: Amaranthus retoflexus (AMARE); experiment: Post-emergence herbicide test, glasshouse, percentage damage; settings: 1000 g/ha, evaluated after 13 days
Procedure, shortened: (§1)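 Compounds are applied as aqueous sprays at 500 g/ha, unless otherwise stated, either one day after sowing or to 8-day-old plants. Injury is assessed after 13 days and expressed on a 1-5 scale, where 5 means 81-100% damage.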

[2] = tested on: Echinochloa crus-galli (ECHCG); experiment: as above; settings: 1000 g/ha, evaluated after 13 days
Procedure, shortened: as §1

[3] = tested on: Ipomoea hederacea (IPOHE); experiment: as above; settings: 1000 g/ha, evaluated after 13 days
Procedure, shortened: as §1

Lolium perenne (LOLPE) [4] = experiment: as above; settings: 1000 g/ha, evaluated after 13 days
Procedure, shortened: as §1

Setaria faberi (SETFA) [5] = experiment: as above; settings: 1000 g/ha, evaluated after 13 days
Procedure, shortened: as §1

Solanum nigrum (SOLNI) [6] = experiment: as above; settings: 1000 g/ha, evaluated after 13 days
Procedure, shortened: as §1

[7] = tested on: Amaranthus retoflexus (AMARE); experiment: Pre-emergence herbicide test, glasshouse, percentage damage; settings: rate 1000 g/ha, evaluated after 13 days
Procedure, shortened: as §1

[8] = tested on: Echinochloa crus-galli (ECHCG); experiment: as above; settings: rate 1000 g/ha, evaluated after 13 days
Procedure, shortened: as §1

[9] = tested on: Ipomoea hederacea (IPOHE); experiment: as above; settings: rate 1000 g/ha, evaluated after 13 days
Procedure, shortened: as §1

Lolium perenne (LOLPE) [10] = experiment: as above; settings: rate 1000 g/ha, evaluated after 13 days
Procedure, shortened: as §1

Setaria faberi (SETFA) [11] = experiment: as above; settings: rate 1000 g/ha, evaluated after 13 days
Procedure, shortened: as §1

Solanum nigrum (SOLNI) [12] = experiment: as above; settings: rate 1000 g/ha, evaluated after 13 days
Procedure, shortened: as §1

| SMILES | percentage damage caused to the plant, AMARE [1] | percentage damage caused to the plant, ECHCG [2] | percentage damage caused to the plant, IPOHE [3] | percentage damage caused to the plant, LOLPE (Lolium perenne (LOLPE) [4]) | percentage damage caused to the plant, SETFA (Setaria faberi (SETFA) [5]) | percentage damage caused to the plant, SOLNI (Solanum nigrum (SOLNI) [6]) | Pre-emergence Test AMARE percentage damage (five point scale) [7] | Pre-emergence Test ECHCG percentage damage (five point scale) [8] | Pre-emergence Test IPOHE percentage damage (five point scale) [9] | Pre-emergence Test LOLPE percentage damage (five point scale) (Lolium perenne (LOLPE) [10]) | Pre-emergence Test SETFA percentage damage (five point scale) (Setaria faberi (SETFA) [11]) | Pre-emergence Test SOLNI percentage damage (five point scale) (Solanum nigrum (SOLNI) [12]) |
| --- | --- | --- | --- | --- | --- | --- | --- | --- | --- | --- | --- | --- |
| Fc1cc(Cl)cnc1Oc1ccccc1-n1ccnc1 [Compound A28, 5-chloro-3-fluoro-2-(2-imidazol-1-ylphenoxy)pyridine] | 5 (5=81-100%) | 1 (1=0-20%) | 1 (1=0-20%) | 1 (1=0-20%) | 1 (1=0-20%) | 4 (4=61-80%) | 3 (3=41-60%) | 1 (1=0-20%) | 1 (1=0-20%) | 1 (1=0-20%) | 1 (1=0-20%) | 1 (1=0-20%) |
| Fc1cc(Cl)cnc1Oc1ccccc1-n1cncn1 [Compound A29] | 4 (4=61-80%) | 1 (1=0-20%) | 2 (2=21-40%) | 1 (1=0-20%) | 2 (2=21-40%) | 4 (4=61-80%) | 5 (5=81-100%) | 1 (1=0-20%) | 1 (1=0-20%) | 1 (1=0-20%) | 4 (4=61-80%) | 3 (3=41-60%) |
| Fc1cc(Cl)cnc1Oc1cccc(F)c1-c1cc(C(F)F)on1 [Compound A30] | 5 (5=81-100%) | 5 (5=81-100%) | 5 (5=81-100%) | 5 (5=81-100%) | 5 (5=81-100%) | 5 (5=81-100%) | 5 (5=81-100%) | 5 (5=81-100%) | 5 (5=81-100%) | 5 (5=81-100%) | 5 (5=81-100%) | 5 (5=81-100%) |
| Fc1cc(Cl)cnc1Oc1cccc(F)c1-c1cc(C(F)(F)F)no1 [Compound A31] | 5 (5=81-100%) | 5 (5=81-100%) | 5 (5=81-100%) | 5 (5=81-100%) | 5 (5=81-100%) | 5 (5=81-100%) | 5 (5=81-100%) | 5 (5=81-100%) | 5 (5=81-100%) | 5 (5=81-100%) | 5 (5=81-100%) | 5 (5=81-100%) |
| N#Cc1cccc(Oc2ccc(Cl)cn2)c1-n1cc(C(F)(F)F)cn1 [Compound A32] | 5 (5=81-100%) | 5 (5=81-100%) | 5 (5=81-100%) | 5 (5=81-100%) | 5 (5=81-100%) | 5 (5=81-100%) | 5 (5=81-100%) | 5 (5=81-100%) | 5 (5=81-100%) | 4 (4=61-80%) | 5 (5=81-100%) | 5 (5=81-100%) |

Source: US12227495B2, “Herbicidal compounds” (SYNGENTA CROP PROTECTION AG, priority 2018, dated 2025)
